The values that follow are results of earlier work, collected in paper PMC3259182 (European Journal of Medicinal Chemistry, 2011).

Each structure is given as a SMILES string.

Data set [1] concerns NV replicon-harboring cells (HG23 cells). The settings on record: NV genome levels, 24 hr post-treatment, ref [4].
The test system of a further data set is HG23 cells. The settings on record: median toxic dose at 48 hr of treatment, ref [4].

Consider `Cl.O=S1(=O)N(CCN2CCOCC2)CCN1Cc1cccc(Oc2ccccc2)c1` [Compound 7c, 2-(2-Morpholinoethyl)-5-(3-phenoxybenzyl)-1,2,5-thiadiazolidine 1,1-dioxide], for which the ED50 in data set [1] was 5.2 µM. The TD50 in the data set on HG23 cells is 95.4 µM.
With `O=S1(=O)N(CCN2CCCCC2)CCN1Cc1cccc(Oc2ccccc2)c1` [Compound 7d, 2-(3-Phenoxybenzyl)-5-(2-(piperidin-1-yl)ethyl)-1,2,5-thiadiazolidine1,1-dioxide], the ED50 in data set [1] was 4.7 µM. The TD50 in the data set with HG23 cells is 12.3 µM.
